Results on 29 molecules are retold here after patent US10968215B2 (SHANGHAI HAIHE PHARMACEUTICAL CO., LTD., priority 2016, dated 2021).

In one assay the target is PRC2 complex (EZH2 Y641F/EED/SUZ12/RbAp48/AEBP2) (Homo sapiens (Human), UniProt Q15910, Y641F). Kind of assay: Activity of a compound to PRC2 complex (EZH2 Y641F), HTRF.
Chain of PRC2 complex (EZH2 Y641F/EED/SUZ12/RbAp48/AEBP2) (Q15910 whole entry Y641F): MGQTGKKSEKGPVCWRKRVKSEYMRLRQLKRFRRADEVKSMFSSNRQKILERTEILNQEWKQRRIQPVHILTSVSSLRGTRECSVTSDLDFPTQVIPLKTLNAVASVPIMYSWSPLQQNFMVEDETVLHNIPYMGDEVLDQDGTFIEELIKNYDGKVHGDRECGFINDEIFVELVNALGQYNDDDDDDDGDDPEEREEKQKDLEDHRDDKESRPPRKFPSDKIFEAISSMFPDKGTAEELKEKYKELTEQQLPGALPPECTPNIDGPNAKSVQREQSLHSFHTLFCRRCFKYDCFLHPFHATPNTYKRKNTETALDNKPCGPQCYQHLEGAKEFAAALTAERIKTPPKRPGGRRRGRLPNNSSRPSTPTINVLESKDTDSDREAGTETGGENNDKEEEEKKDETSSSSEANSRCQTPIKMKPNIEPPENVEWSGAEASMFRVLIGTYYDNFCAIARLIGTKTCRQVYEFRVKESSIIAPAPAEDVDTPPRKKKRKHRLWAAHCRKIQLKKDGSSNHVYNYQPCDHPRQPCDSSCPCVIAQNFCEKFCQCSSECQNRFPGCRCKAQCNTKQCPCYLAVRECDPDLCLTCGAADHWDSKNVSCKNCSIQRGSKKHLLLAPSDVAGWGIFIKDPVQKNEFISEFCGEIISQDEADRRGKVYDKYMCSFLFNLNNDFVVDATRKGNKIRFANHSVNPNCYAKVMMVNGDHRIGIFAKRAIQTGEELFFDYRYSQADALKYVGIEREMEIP
Chain of PRC2 complex (EZH2 Y641F/EED/SUZ12/RbAp48/AEBP2) (O75530 whole entry partner): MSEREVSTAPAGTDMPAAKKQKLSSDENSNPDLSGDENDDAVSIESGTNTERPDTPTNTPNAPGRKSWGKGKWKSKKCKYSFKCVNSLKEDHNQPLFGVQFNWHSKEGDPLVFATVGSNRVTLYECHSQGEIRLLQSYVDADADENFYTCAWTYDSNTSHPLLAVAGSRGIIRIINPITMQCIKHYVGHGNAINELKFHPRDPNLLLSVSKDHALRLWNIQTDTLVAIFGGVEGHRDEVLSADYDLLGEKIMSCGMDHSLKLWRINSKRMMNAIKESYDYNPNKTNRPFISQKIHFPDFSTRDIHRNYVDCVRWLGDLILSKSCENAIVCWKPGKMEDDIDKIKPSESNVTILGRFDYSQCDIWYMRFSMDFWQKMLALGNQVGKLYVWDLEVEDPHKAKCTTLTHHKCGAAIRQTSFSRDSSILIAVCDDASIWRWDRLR
Chain of PRC2 complex (EZH2 Y641F/EED/SUZ12/RbAp48/AEBP2) (Q15022 whole entry partner): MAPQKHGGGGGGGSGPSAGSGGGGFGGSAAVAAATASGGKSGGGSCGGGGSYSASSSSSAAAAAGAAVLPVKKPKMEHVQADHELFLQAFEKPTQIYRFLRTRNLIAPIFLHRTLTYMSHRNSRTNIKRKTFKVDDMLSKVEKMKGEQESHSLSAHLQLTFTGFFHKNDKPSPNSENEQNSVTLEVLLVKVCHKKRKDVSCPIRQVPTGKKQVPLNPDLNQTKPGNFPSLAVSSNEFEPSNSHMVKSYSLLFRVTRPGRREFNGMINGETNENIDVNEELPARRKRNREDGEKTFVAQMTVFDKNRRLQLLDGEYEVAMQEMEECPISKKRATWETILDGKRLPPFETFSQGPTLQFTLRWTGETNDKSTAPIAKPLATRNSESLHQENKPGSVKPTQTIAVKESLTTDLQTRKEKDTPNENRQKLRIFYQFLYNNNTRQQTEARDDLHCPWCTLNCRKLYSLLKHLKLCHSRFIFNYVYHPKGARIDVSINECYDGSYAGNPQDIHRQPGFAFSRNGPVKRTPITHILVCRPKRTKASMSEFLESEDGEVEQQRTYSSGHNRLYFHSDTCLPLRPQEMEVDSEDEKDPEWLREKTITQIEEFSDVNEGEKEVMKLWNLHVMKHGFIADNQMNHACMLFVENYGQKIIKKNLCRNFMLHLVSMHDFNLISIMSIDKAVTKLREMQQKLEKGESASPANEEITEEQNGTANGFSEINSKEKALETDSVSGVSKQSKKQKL
Chain of PRC2 complex (EZH2 Y641F/EED/SUZ12/RbAp48/AEBP2) (Q09028 whole entry partner): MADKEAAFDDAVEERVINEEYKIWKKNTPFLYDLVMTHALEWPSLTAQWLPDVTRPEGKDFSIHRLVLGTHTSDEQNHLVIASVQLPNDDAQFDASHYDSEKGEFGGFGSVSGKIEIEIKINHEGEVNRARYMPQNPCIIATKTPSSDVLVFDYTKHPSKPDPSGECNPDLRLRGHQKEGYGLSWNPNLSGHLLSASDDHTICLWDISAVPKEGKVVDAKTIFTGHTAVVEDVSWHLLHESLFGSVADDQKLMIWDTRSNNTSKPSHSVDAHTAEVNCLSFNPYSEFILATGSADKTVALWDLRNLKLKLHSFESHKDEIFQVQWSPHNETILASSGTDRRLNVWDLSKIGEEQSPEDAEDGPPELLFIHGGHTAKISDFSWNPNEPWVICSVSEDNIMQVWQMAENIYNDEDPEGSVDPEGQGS
Chain of PRC2 complex (EZH2 Y641F/EED/SUZ12/RbAp48/AEBP2) (Q6ZN18 whole entry partner): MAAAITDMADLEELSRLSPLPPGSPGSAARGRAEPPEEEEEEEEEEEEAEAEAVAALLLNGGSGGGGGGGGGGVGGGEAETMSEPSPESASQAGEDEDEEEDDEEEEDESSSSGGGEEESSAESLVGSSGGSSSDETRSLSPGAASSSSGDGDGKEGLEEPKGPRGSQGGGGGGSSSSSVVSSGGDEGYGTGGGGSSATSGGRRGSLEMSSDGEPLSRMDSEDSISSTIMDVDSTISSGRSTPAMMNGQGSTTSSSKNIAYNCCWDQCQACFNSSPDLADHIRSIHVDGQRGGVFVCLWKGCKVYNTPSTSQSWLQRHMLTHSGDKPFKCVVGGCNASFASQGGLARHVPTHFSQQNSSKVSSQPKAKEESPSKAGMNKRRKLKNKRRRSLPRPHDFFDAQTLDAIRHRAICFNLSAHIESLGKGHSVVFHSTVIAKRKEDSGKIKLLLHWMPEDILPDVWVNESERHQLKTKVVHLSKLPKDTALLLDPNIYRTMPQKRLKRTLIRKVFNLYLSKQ
Details: not given
A general note: Time-resolved FRET reads energy transfer from a long-lived donor to a nearby acceptor.
Regarding `COc1cc(C)[nH]c(=O)c1CNC(=O)c1cc2c(-c3ccn[nH]3)ccn2c(C(C)OCc2nccs2)c1C` (centres unmarked) [Compound 191, N-((4-methoxy-6-methyl-2-oxo-1,2-dihydropyridin-3-yl)methyl)-6-methyl-1-(1H-pyrazol-5-yl)-5-(1-(thiazol-2-ylmethoxy)ethyl)indolizine-7-carboxamide], the IC50 (commonly the concentration needed to halve the response being measured) was less than 0.1 µM.
Same read-out and setting: in the case of `COc1cc(C)[nH]c(=O)c1CNC(=O)c1cc2c(-c3ccc(F)cc3)ccn2c(C(C)N2CCN(CC(F)(F)F)CC2)c1C` (centres unmarked) [Compound 162, 1-(4-fluorophenyl)-N-((4-methoxy-6-methyl-2-oxo-1,2-dihydropyridin-3-yl)methyl)-6-methyl-5-(1-(4-(2,2,2-trifluoroethyl)piperazin-1-yl)ethyl)indolizine-7-carboxamide] it was less than 0.1 µM; in that of `Cc1cc(C)c(CNC(=O)c2cc3cc(-c4cnn(C)c4)cn3c(C(C)N3CCOCC3)c2C)c(=O)[nH]1` (centres unmarked) [Example 42, N-((4,6-dimethyl-2-oxo-1,2-dihydropyridin-3-yl)methyl)-6-methyl-2-(1-methyl-1H-pyrazol-4-yl)-5-(1-morpholinylethyl)indolizine-7-carboxamide], less than 0.1 µM.
The same measure, in the same setting: then `CCN(c1c(C)c(C(=O)NCc2c(C)cc(C)[nH]c2=O)cc2cc(Br)cn12)C1CCN(C(C)=O)CC1` [Example 62, 5-((1-acetylpiperidin-4-yl)(ethyl)amino)-2-bromo-N-((4,6-dimethyl-2-oxo-1,2-dihydropyridine-3-yl)methyl)-6-methylindolizine-7-carboxamide], with less than 0.1 µM; and `CNc1cc(-c2ccn3c(C(C)N4CCN(CC(F)(F)F)CC4)c(C)c(C(=O)NCc4c(OC)cc(C)[nH]c4=O)cc23)ccn1` (centres unmarked) [Compound 180, N-((4-methoxy-6-methyl-2-oxo-1,2-dihydropyridin-3-yl)methyl)-6-methyl-1-(2-(methylamino)pyridin-4-yl)-5-(1-(4-(2,2,2-trifluoroethyl)piperazin-1-yl)ethyl)indolizine-7-carboxamide], with less than 0.1 µM.
Same read-out and setting: then `Cc1cc(C)c(CNC(=O)c2cc3cc(-c4nccn4C)cn3c(C(C)N3CCOCC3)c2C)c(=O)[nH]1` (centres unmarked) [Example 79, N-((4,6-dimethyl-2-oxo-1,2-dihydropyridin-3-yl)methyl)-6-methyl-2-(1-methyl-1H-imidazole-2-yl)-5-(1-morpholinoethyl)indolizine-7-carboxamide], with less than 0.1 µM.

The assay is the same for the next values; noted with them: read-out: IC50 (EZH2_Y641F); EZH2 Y641F PRC2 complex, HTRF; class symbols.
For the molecule `Cc1cc(C)c(CNC(=O)c2cc3cccn3c(C(C)OCc3ccncc3)c2C)c(=O)[nH]1` (centres unmarked) [Example 16, N-((4,6-dimethyl-2-oxo-1,2-dihydropyridin-3-yl)methyl)-6-methyl-5-(1-(pyridine-4-ylmethoxy)ethyl)indolizine-7-carboxamide], the IC50 fell in the range of 0.1 to 1 µM.
Still for that read-out and setting: in the case of `CCN(c1c(C)c(C(=O)NCc2c(C)cc(C)[nH]c2=O)cc2cc(-c3nccs3)cn12)C1CCOCC1` [Example 67, N-((4,6-dimethyl-2-oxo-1,2-dihydropyridin-3-yl)methyl)-5-(ethyl(tetrahydro-2H-pyran-4-yl)amino)-6-methyl-2-(thiazol-2-yl)indolizin-7-carboxamide] it was 0.1 to 1 µM; in that of `Cc1cc(C)c(CNC(=O)c2cc3cc(C4=CCOCC4)cn3c(C(C)N3CCOCC3)c2C)c(=O)[nH]1` (centres unmarked) [Example 47], 0.1 to 1 µM.
The same measure, in the same setting: then `COc1cccc(-c2cc3cc(C(=O)NCc4c(C)cc(C)[nH]c4=O)c(C)c(C(C)N4CCOCC4)n3c2)c1` (centres unmarked) [Example 96, N-((4,6-dimethyl-2-oxo-1,2-dihydropyridin-3-yl)methyl)-2-(3-methoxyphenyl)-6-methyl-5-(1-morpholinylethyl)indolizine-7-carboxamide], with less than 0.1 µM.
Still for that read-out and setting: then `Cc1cc(C)c(CNC(=O)c2cc3cc(-c4cncn4C)cn3c(C(C)N3CCC(N(C)C)CC3)c2C)c(=O)[nH]1` (centres unmarked) [Example 134, N-((4,6-dimethyl-2-oxo-1,2-dihydropyridin-3-yl)methyl)-5-(1-(4-(dimethylamino)piperidin-1-yl)ethyl)-6-methyl-2-(1-methyl-1H-imidazol-5-yl)indolizine-7-carboxamide], with less than 0.1 µM; and `Cc1cc(C)c(CNC(=O)c2cc3cc(-c4cccc(CN5CCOCC5)c4)cn3c(C(C)N3CCOCC3)c2C)c(=O)[nH]1` (centres unmarked) [Example 80, N-((4,6-dimethyl-2-oxo-1,2-dihydropyridin-3-yl)methyl)-5-(1-morpholine-1-ethyl)-6-methyl-2-(3-(morpholinemethylene)phenyl)indolizin-7-amide], with 0.1 to 1 µM; and `COc1cc(C)[nH]c(=O)c1CNC(=O)c1cc2cc(-c3ccnn3C)cn2c(C(C)N2CCN(CC(F)(F)F)CC2)c1C` (centres unmarked) [Example 83, N-((4-methoxy-6-methyl-2-oxo-1,2-dihydropyridin-3-yl)methyl)-6-methyl-2-(1-methyl-1H-pyrazol-5-yl)-5-(1-(4-(2,2,2-trifluoroethyl)piperazin-1-yl)ethyl)indolizine-7-carboxamide], with less than 0.1 µM.
As for `Cc1cc(C)c(CNC(=O)c2cc3cc(-c4ccc(N5CCN(C)CC5)nc4)cn3c(C(C)N3CCOCC3)c2C)c(=O)[nH]1` (centres unmarked) [Example 91], the IC50 is less than 0.1 µM.
Regarding `COc1cc(C)[nH]c(=O)c1CNC(=O)c1cc2c(-c3ncnn3C)ccn2c(C(C)N2CCN(CC(F)(F)F)CC2)c1C` (centres unmarked) [Compound 183, N-((4-methoxy-6-methyl-2-oxo-1,2-dihydropyridin-3-yl)methyl)-6-methyl-1-(1-methyl-1H-1,2,4-triazol-5-yl)-5-(1-(4-(2,2,2-trifluoroethyl)piperazin-1-yl)ethyl)indolizine-7-carboxamide], the IC50 is less than 0.1 µM.
The same measure, in the same setting: then `CCN(c1c(C)c(C(=O)NCc2c(C)cc(C)[nH]c2=O)cc2cc(Br)cn12)C1CCNCC1` [Example 61, 2-bromo-N-((4,6-dimethyl-2-oxo-1,2-dihydropyridin-3-yl)methyl)-5-(ethyl(piperidin-4-yl)amino)-6-methylindolizine-7-carboxamide], with 0.1 to 1 µM; and “N-((4,6-dimethyl-2-oxo-1,2-dihydropyridin-3-yl)methyl)-2-(3-((dimethylamino)methyl)phen yl))-6-methyl-5-(1-morpholineethyl)indolizine-7-amide [Example 74]”, with less than 0.1 µM; and `Cc1cc(C)c(CNC(=O)c2cc3cc(-c4cncs4)cn3c(C(C)N3CCN(CC(F)(F)F)CC3)c2C)c(=O)[nH]1` (centres unmarked) [Example 140], with 0.1 to 1 µM.
On to `CCN(c1c(C)c(C(=O)NCc2c(C)cc(C)[nH]c2=O)cc2cc(Br)cn12)C1CCOCC1` [Example 57], for which the IC50 was in the range of 0.1 to 1 µM.
As for “N-((4-methoxy-6-methyl-2-oxo-1,2-dihydropyridin-3-yl)methyl)-6-methyl-1-(2-methylpyridin-3-yl)-5-(1-(4-(2,2,2-trifluoroethyl)piperazin-1-yl)ethyl)indolizine-7-carboxamide [Compound 166]”, the IC50 was less than 0.1 µM.
On the same count and under the same terms, then `Cc1cc(C)c(CNC(=O)c2cc3cccn3c(C(C)OCC(C)C)c2C)c(=O)[nH]1` (centres unmarked) [Example 6, N-((4,6-Dimethyl-2-oxo-1,2-dihydropyridin-3-yl)methyl)-5-(1-isobutyloxyethyl)-6-methylindolizine-7-carboxamide], with 1 to 10 µM; and `Cc1cc(C)c(CNC(=O)c2cc3cc(-c4ccnn4C)cn3c(C(C)N3CCN(CC(F)(F)F)CC3)c2C)c(=O)[nH]1` (centres unmarked) [Example 84, N-((4,6-dimethyl-2-oxo-1,2-dihydropyridin-3-yl)methyl)-6-methyl-2-(1-methyl-1H-pyrazole-5-yl)-5-(1-(4-(2,2,2-trifluoroethyl)piperazin-1-yl)ethyl)indolizine-7-carboxamide], with 0.1 to 1 µM; and `CNc1ccc(-c2ccn3c([C@H](C)N4CCN(CC(F)(F)F)CC4)c(C)c(C(=O)NCc4c(OC)cc(C)[nH]c4=O)cc23)cn1` (single isomer, unassigned) [Compound 165, (S)—N-((4-methoxy-6-methyl-2-oxo-1,2-dihydropyridin-3-yl)methyl)-6-methyl-1-(6-(methylamino)pyridin-3-yl)-5-(1-(4-(2,2,2-trifluoroethyl)piperazin-1-yl)ethyl)indolizine-7-formamide or (R)—N-((4-methoxy-6-methyl-2-oxo-1,2-dihydropyridin-3-yl)methyl)-6-methyl-1-(6-(methylamino)pyridin-3-yl)-5-(1-(4-(2,2,2-trifluoroethyl)piperazin-1-yl)ethyl)indolizine-7-formamide], with less than 0.1 µM.
On the same count and under the same terms, then `COc1cc(C)[nH]c(=O)c1CNC(=O)c1cc2c(-c3c(C)noc3C)ccn2c(C(C)N2CCN(CC(F)(F)F)CC2)c1C` (centres unmarked) [Compound 161, 1-(3,5-dimethylisoxazol-4-yl)-N-((4-methoxy-6-methyl-2-oxo-1,2-dihydropyridin-3-yl)methyl)-6-methyl-5-(1-(4-(2,2,2-trifluoroethyl)piperazin-1-yl)ethyl)indolizine-7-carboxamide], with less than 0.1 µM; and `Cc1cc(C)c(CNC(=O)c2cc3cccn3c(C(C)OCc3ccnn3C)c2C)c(=O)[nH]1` (centres unmarked) [Example 21], with less than 0.1 µM.
Same read-out and setting: then `Cc1cc(C)c(CNC(=O)c2cc3cc(Br)cn3c(C(C)N3CCN(CCC(F)(F)F)CC3)c2C)c(=O)[nH]1` (centres unmarked) [Example 105, 2-bromo-N-((4,6-dimethyl-2-oxo-1,2-dihydropyridin-3-yl)methyl)-6-methyl-5-(1-(4-(3,3,3-trifluoropropyl)piperazin-1-yl)ethyl)indolizine-7-carboxamide], with 1 to 10 µM; and `COc1cc(C)[nH]c(=O)c1CNC(=O)c1cc2c(-c3ccc(N)nc3)ccn2c(C(C)N2CCN(CC(F)(F)F)CC2)c1C` (centres unmarked) [Compound 157], with less than 0.1 µM; and `COc1cc(C)[nH]c(=O)c1CNC(=O)c1cc2cc(-c3nccn3C)cn2c(C(C)N2CCC(N(C)C)CC2)c1C` (centres unmarked) [Example 108], with less than 0.1 µM.
As for `Cc1cc(C)c(CNC(=O)c2cc3cc(Cl)cn3c(C(C)N3CCOCC3)c2C)c(=O)[nH]1` (centres unmarked) [Example 69, 2-chloro-N-((4,6-dimethyl-2-oxo-1,2-dihydropyridin-3-yl)methyl)-6-methyl-5-(1-morphinolinylethyl)indolizine-7-carboxamide], the IC50 is less than 0.1 µM.
